Data as given in US20070274947A1, “Antisense Oligonucleotides Directed to Ribonucleotide Reductase R1 and Uses Thereof in the Treatment of Cancer” (priority 2003, published 2007).
Entries after “also recorded” stand apart in the source; their conditions may differ.

How the values were obtained:
[1] = test system: LS513 cells; experiment: LS513 multi-drug resistant colon adenocarcinoma growth in SCID mice; format: in vivo, human
Description: LS513 cells (1×10^7 cells in 100 μl of PBS) were subcutaneously injected into the right flank of 6-7 weeks old female SCID mice. After the size of tumor reached an approximate volume of 100 mm^3, 8 days post tumor cell injection, SEQ ID NO:1 was administered by bolus infusion into the tail vein every other day at 10 mg/kg. Control animals received saline alone for the same period. Antitumor effect of SEQ ID NO:1 was further compared to that of CPT-11. CPT-11 was administered i.p. for 5 days at a dose of 20 mg/kg/day. Antitumor activities were estimated by the inhibition of tumor volume, which was measured with calipers. Each point represents mean tumor volume calculated from 10 animals per experimental group (FIG. 16A). Tumor weights were measured after animals were sacrificed at the end of the treatment (FIGS. 16B and 16C). These cells are not resistant to CPT-11, which was used as a positive control.

[2] = test system: CB7 Friend retrovirus-induced mouse Erytheroleukemia cells; experiment: Survival of SCID mice bearing mouse erythroleukemia (CB7); format: in vivo; conditions: 10 mg/kg i.v. every second day, stopped at day 71; one mouse died at day 30 and another at day 54; untreated died within 36 days
Description: In vivo studies were conducted to assess the therapeutic potential of SEQ ID NO:1 in the treatment of mouse Erythroleukemia. CB7 Friend retrovirus-induced mouse Erytheroleukemia cells (5×10^6) collected from subconfluent logarithmically growing cultures were injected i.v. via the tail vein of each animal and disease was allowed to establish for 2 days. SEQ ID NO:1 in normal saline was administered by tail vein injections every second day at a dose of 10 mg/kg. Control animals received saline alone, without oligonucleotide. Treatment with SEQ ID NO:1 was stopped at day 71. Antitumor effects of SEQ ID NO:1 treatment were assessed by the examination of survival of mice (FIG. 19). All mice died as a consequence of tumor progression within 36 days when left untreated. All SEQ ID NO:1 treated animals, on the other hand, survived beyond day 71 except one mouse which died at day 30 and another at day 54.

[3] = test system: R1 mRNA; experiment: R1 mRNA levels in HT-29 colon tumors in nude mice (Northern blot); format: in vivo, human; conditions: day 16, 10 mg/kg every other day, two independent HT-29 tumors
Description: Effects of SEQ ID NO:1 administration on R1 mRNA levels in HT-29 colon tumors in nude mice were investigated.
For determination of mRNA levels in tumors by Northern Blot, total RNA was prepared from excised tumors using TRIzol reagent (GIBCO BRL). Northern blot analysis was performed as previously described (Hurta and Wright, 1995). RNA was subjected to electrophoresis through 1% formaldehyde agarose gels followed by transfer to nylon membranes. Blots were hybridized in the presence of a R1 fragment (McClarty et al, 1987). Glyceraldehyde-3-phosphate dehydrogenase (GAPDH) mRNA levels were simultaneously probed for RNA loading controls.
The results provide strong evidence that SEQ ID NO:1 is reaching the tumor site in vivo and is acting by an antisense mechanism of action.

[4] = test system: MDA-CDDP-S4 human in vivo-selected Cisplatin-resistant breast adenocarcinoma cells; experiment: Cisplatin-resistant breast adenocarcinoma MDA-CDDP-S4 growth in SCID mice
Description: MDA-CDDP-S4 human in vivo-selected Cisplatin-resistant breast adenocarcinoma cells MDA231/CDDPs4) (4×10^6 cells in 100 μl of PBS) were injected into the fat pad (inside of right leg) of 6-7 weeks old female SCID mice. After the size of tumor reached an approximate volume of 100 mm^3, 7-9 days post tumor cell injection, SEQ ID NO:1 was administered by bolus infusion into the tail vein every other day at 10 mg/kg. Control animals received saline alone for the same period. Antitumor effect of SEQ ID NO:1 was further compared to that of Cisplatin or Taxol alone (FIG. 14A) and in combination as indicated in the FIGS. 14B, 14C and 14D. Cisplatin was administered intravenously once a week for three weeks at a dose of 4 mg/kg. Taxol was administered intravenously once a week for three weeks at a dose of 10 mg/kg. Antitumor activities were estimated by the inhibition of tumor volume, which was measured with caliper and each point represents mean tumor volume calculated from 10 animals per experimental group (FIG. 14C). At the end of the study animals were sacrificed, tumor weights taken and mean tumor weights are indicated. […] As expected, treatment with Cisplatin during the same period was ineffective against Cisplatin-resistant tumor.

[5] = test system: R1 mRNA; experiment: Northern blot of R1 mRNA in A2058 human melanoma cells; format: cell-based; conditions: 0.2 μM, 4 hr with Lipofectin
Description: A2058 human melanoma cells, grown to subconfluency (70-80%), were treated with 0.2 μM of phosphorothioate antisense ODNs for 4 hr in the presence of cationic lipid (Lipofectin reagent, final concentration, 5 μg/ml, GIBCO BRL) and Opti-MEM (GIBCO BRL). Cells were washed once with PBS and incubated for 16 hr in α-MEM medium (GIBCO BRL) containing 10% FBS. Total RNA was prepared in TRIzol reagent (GIBCO BRL) and northern blot analysis was performed as previously described (Hurta and Wright, J. Cell. Biochem. 57: 543-56, 1995) with some modifications. RNA prepared from cells treated with lipofectin alone (Control), SEQ ID NO:1 and scrambled control analogue (SEQ ID NO:1 Scr) were subjected to electrophoresis through 1% formaldehyde agarose gels followed by transfer to nylon membrane. The blots were hybridized with ^32P-labeled probes that detect R1 mRNA, 28S rRNA, 18S rRNA, thioredoxin mRNA, […], GAPDH mRNA, thioredoxin reductase mRNA, ribosomal protein S9 mRNA, RNase MRP RNA, RNase P RNA and R2 mRNA.

[6] = test system: C8161 human melanoma cells; experiment: Experimental metastasis of C8161 cells treated ex vivo (lung nodules, CD-1 athymic nude mice); format: in vivo; conditions: cells treated 4 hr with 0.2 μM plus Lipofectin before tail vein injection; 4 weeks; vs lipofectin alone
Description: A. Experimental metastasis of C8161 human melanoma cells treated with SEQ ID NO:1 was estimated as follows. Aliquots of C8161 cell suspension were seeded into 100 mm tissue culture dishes at a density of 2×10^6 and incubated overnight at 37° C. in α-MEM medium supplemented with 10% FBS. Following a wash with 10 ml of PBS, cells were treated for 4 hr with 0.2 μM of SEQ ID NO:1 in the presence of a cationic lipid (Lipofectin reagent, final concentration, 10 μg/ml, Gibco BRL) or with lipofectin alone (CONTROL) as a control. SEQ ID NO:1 was removed by washing the cells once with PBS. Cells were then collected by trypsinization and centrifugation. Approximately 1×10^5 cells suspended in 0.2 ml of PBS were injected into the tail veins of 6-8 week-old CD-1 athymic female nude mice. Estimates of the number of lung tumors were made 4 weeks later by counting metastatic foci formed on the excised lung surface, see FIG. 12A. Bars represent mean number of tumor nodules in lungs obtained from 7-9 animals per experimental group.

5′-CTCTAGCGTCTTAAAGCCGA-3′ (CTCTAGCGTCTTAAAGCCGA; chemistry not given here) [SEQ ID NO:1]
efficacy compared with CPT-11 ([1]; CPT-11 20 mg/kg/day i.p. for 5 days): more effective than CPT-11 | tumor growth (volume, weight) ([1]; SCID mice, 10 mg/kg i.v. every other day, vs saline): significant delay of tumor growth | survival of mice [2]: > 71 days | R1 mRNA levels in tumors [3]: marked reduction; also recorded: decreased R1 mRNA levels | tumor weight / tumor growth ([4]; SCID mice, fat pad, SEQ ID NO:1 10 mg/kg every other day, Cisplatin 4 mg/kg, Taxol 10 mg/kg i.v. weekly for three weeks): significant reduction of tumor weight | delay in tumor growth compared with Taxol ([4]; Taxol 10 mg/kg weekly as positive control): superior to the inhibitory effects observed with Taxol | R1 mRNA expression [5]: significant decrease; also recorded: significantly decrease expression of R1mRNA | number of lung tumor nodules [6]: significantly reduced the formation of lung colonies
